# Data published in ChEMBL document CHEMBL1201862, “PubChem BioAssay data set” (2004).
# Activity calls are given as the source filed them.
# Columns and labels:
# [1] = molecular target: Adenosylmethionine-8-amino-7-oxononanoate aminotransferase (Mycobacterium tuberculosis, UniProt P9WQ81); assay: Mycobacterium tuberculosis BioA enzyme inhibitor Measured in Biochemical System Using Plate Reader - 2163-02_Inhibitor_Dose_CherryPick_Activity.; assay type: functional, Mycobacterium tuberculosis UT205
# Sequence of Adenosylmethionine-8-amino-7-oxononanoate aminotransferase (P9WQ81 whole entry): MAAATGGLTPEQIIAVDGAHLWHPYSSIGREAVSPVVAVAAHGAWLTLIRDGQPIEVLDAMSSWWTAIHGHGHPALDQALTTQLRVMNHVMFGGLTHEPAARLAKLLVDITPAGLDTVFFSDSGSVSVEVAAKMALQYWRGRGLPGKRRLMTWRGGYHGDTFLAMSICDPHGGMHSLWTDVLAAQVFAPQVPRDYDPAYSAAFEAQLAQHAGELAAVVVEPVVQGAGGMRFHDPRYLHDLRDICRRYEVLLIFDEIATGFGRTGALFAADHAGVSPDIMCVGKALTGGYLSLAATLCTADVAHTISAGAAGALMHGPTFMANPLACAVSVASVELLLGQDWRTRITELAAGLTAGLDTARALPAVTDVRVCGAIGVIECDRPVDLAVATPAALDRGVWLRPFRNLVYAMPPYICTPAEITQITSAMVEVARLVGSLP
# [2] = molecular target: Ras and Rab interactor 1/Tyrosine-protein kinase ABL1 (Homo sapiens, UniProt P00519+Q13671); assay type: functional;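 note: biochemical TR-FRET dose-response test measuring inhibition of binding between Rin1 and Abl proteins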
# Sequence of Ras and Rab interactor 1/Tyrosine-protein kinase ABL1 (P00519 whole entry): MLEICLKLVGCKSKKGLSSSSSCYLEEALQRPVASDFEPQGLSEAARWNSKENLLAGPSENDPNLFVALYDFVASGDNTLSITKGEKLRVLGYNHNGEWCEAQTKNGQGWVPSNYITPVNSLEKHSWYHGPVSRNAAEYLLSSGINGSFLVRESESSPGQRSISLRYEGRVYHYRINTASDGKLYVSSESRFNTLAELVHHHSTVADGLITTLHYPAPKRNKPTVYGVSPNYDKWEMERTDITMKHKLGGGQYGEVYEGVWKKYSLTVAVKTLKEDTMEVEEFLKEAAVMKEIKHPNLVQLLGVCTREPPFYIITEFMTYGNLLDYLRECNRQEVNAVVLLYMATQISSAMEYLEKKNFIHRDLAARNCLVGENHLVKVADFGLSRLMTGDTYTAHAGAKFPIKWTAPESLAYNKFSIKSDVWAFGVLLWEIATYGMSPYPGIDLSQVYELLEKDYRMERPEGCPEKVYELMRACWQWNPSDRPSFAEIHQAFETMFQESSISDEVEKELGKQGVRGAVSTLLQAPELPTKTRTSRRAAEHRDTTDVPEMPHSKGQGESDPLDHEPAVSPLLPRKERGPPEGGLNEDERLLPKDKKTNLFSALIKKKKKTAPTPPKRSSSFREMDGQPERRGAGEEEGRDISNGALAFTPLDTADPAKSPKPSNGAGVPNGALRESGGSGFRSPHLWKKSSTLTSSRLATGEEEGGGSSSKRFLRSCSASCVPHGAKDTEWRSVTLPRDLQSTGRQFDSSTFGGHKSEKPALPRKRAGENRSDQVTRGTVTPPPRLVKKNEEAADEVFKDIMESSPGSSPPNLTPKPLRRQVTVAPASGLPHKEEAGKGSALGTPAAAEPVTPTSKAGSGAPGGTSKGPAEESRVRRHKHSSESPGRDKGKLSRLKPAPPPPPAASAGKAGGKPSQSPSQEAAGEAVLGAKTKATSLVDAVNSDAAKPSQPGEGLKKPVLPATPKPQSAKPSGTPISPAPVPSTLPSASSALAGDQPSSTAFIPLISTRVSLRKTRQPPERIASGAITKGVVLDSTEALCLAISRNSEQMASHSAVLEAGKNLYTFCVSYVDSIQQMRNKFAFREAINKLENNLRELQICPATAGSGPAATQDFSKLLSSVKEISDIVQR
# Sequence of Ras and Rab interactor 1/Tyrosine-protein kinase ABL1 (Q13671 whole entry): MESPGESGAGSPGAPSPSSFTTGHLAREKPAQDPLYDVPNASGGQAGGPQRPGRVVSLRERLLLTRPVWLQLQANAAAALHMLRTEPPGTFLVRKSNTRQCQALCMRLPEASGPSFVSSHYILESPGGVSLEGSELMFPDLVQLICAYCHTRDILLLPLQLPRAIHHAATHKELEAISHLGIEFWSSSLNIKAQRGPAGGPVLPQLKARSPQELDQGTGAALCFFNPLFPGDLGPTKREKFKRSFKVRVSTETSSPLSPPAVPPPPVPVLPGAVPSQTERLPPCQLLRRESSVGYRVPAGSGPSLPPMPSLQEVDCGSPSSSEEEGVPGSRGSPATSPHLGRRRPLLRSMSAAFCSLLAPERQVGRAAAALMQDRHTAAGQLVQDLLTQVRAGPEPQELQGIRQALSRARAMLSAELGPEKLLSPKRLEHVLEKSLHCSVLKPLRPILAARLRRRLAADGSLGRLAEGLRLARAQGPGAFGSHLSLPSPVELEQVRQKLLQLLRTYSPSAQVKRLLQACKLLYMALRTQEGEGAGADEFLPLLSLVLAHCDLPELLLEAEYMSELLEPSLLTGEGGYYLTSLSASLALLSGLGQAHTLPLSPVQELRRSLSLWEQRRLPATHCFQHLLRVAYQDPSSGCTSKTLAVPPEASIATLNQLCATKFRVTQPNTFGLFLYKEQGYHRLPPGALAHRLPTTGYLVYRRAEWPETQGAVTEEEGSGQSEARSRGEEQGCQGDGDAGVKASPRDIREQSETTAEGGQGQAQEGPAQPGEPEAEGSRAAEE
# [3] = molecular target: T1, Sentrin-specific protease 8 (Homo sapiens, UniProt Q96LD8); assay: inhibition of human SENP8 cleavage activity – biochemical, luminescence, SAR follow-up (AID 504501); assay type: functional
# T1 sequence (Q96LD8 whole entry): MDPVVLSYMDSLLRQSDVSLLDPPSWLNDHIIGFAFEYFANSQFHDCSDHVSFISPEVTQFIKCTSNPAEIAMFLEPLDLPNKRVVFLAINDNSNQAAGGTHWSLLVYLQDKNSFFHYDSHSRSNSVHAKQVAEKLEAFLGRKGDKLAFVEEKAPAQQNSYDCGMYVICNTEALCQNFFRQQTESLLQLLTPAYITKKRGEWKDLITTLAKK
# Caspase-3 = molecular target: T2, Caspase-3 (Homo sapiens, UniProt P42574); assay: SAR Analysis of small molecule inhibitors of Sentrin-specific proteases (SENPs) using a Caspase-3 Selectivity assay. [Related pubchem assays (depositor defined):AID2540, AID2599, AID434973, AID489001]; assay type: functional
# T2 sequence (P42574 whole entry): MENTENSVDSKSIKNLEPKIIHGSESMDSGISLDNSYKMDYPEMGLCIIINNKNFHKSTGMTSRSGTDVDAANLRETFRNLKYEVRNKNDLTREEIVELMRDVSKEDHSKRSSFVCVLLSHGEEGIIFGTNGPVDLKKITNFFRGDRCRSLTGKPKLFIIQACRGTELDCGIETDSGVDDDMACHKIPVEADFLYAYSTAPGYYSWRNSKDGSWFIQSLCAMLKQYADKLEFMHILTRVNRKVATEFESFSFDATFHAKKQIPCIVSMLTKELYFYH
# [4] = molecular target: T3, Sentrin-specific protease 6 (Homo sapiens, UniProt Q9GZR1); assay: SAR Analysis of small molecule inhibitors of Sentrin-specific protease 6 (SENP6) using a Luminescent assay. [Related pubchem assays (depositor defined):AID2582, AID2599]; assay type: functional
# T3 sequence (Q9GZR1 whole entry): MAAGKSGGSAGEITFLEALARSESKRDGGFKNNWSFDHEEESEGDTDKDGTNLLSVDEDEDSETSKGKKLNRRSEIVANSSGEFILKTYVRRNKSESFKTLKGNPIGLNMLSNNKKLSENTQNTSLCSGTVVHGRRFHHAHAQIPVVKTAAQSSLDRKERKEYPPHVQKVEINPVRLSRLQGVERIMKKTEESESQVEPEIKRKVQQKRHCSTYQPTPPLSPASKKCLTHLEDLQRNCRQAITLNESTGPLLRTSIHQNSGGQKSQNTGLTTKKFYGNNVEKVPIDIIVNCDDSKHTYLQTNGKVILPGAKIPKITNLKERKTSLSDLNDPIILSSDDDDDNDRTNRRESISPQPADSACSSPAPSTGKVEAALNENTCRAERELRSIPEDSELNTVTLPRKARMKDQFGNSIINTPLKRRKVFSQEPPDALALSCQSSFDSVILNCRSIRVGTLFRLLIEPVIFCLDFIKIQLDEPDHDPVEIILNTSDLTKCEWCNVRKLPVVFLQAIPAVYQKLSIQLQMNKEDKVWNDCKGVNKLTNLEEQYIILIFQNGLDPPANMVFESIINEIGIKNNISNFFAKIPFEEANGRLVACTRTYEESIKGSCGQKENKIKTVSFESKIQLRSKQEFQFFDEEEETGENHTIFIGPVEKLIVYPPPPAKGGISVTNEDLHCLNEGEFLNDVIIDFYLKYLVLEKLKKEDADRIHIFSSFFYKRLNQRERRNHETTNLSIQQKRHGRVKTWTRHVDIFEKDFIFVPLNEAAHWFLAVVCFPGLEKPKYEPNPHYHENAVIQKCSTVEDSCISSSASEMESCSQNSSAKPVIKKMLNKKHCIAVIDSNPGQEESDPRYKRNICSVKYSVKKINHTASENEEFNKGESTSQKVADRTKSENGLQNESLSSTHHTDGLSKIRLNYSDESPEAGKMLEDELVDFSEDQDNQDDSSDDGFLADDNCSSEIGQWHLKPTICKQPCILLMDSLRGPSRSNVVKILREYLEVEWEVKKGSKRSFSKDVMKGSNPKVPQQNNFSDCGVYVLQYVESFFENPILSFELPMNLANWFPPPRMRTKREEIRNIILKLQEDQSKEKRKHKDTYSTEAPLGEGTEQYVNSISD
# [5] = molecular target: Luciferin 4-monooxygenase (Photinus pyralis, UniProt P08659); assay: inhibition of purified Photinus pyralis luciferase – biochemical, luminescence, dose response (AID 1891)
# Sequence of Luciferin 4-monooxygenase (P08659 whole entry): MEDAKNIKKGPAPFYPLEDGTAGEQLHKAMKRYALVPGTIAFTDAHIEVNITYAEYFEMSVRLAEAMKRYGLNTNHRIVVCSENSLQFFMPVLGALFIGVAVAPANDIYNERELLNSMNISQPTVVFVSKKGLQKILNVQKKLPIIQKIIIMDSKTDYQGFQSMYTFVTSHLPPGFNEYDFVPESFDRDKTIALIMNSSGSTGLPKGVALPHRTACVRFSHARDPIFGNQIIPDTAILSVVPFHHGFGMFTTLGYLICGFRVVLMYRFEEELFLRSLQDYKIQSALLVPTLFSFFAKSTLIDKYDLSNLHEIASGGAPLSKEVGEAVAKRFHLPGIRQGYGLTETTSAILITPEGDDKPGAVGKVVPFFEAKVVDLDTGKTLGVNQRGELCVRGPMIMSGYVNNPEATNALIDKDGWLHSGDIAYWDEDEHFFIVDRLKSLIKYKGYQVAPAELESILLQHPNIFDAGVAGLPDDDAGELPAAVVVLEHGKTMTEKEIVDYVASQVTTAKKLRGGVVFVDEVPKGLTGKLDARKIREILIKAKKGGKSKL
# [6] = Luminescence Cell-Based Dose Confirmation HTS to Identify Inhibitors of Platelet Dense Granule Release. [Related pubchem assays: 1663 (Primary HTS), 1678 (Summary of Project)]; assay type: functional
# [7] = molecular target: Beta-2 adrenergic receptor (Homo sapiens, UniProt P07550); assay: ADRB2 activation measured by internalization – cell-based, FAP fluorogen, flow cytometry, cherry pick 1, dose response (AID 588763); assay type: functional
# Sequence of Beta-2 adrenergic receptor (P07550 whole entry): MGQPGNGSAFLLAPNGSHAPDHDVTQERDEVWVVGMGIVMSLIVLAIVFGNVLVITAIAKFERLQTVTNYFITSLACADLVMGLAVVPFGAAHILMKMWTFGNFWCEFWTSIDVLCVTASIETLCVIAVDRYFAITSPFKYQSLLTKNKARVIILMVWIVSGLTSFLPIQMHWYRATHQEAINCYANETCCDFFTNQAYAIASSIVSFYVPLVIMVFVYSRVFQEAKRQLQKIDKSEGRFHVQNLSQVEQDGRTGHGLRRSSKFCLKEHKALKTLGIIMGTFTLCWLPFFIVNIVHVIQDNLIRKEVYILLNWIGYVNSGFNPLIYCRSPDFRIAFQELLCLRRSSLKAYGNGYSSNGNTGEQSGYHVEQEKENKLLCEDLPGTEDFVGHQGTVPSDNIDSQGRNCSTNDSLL
# [8] = molecular target: Dual specificity protein kinase CLK1 (Homo sapiens, UniProt P49759); assay: inhibition of human CLK1 activity – biochemical, cherry-picked samples, selectivity assay for Dyrk1A inhibitor project, dose response (AID 588811)
# Sequence of Dual specificity protein kinase CLK1 (P49759 whole entry): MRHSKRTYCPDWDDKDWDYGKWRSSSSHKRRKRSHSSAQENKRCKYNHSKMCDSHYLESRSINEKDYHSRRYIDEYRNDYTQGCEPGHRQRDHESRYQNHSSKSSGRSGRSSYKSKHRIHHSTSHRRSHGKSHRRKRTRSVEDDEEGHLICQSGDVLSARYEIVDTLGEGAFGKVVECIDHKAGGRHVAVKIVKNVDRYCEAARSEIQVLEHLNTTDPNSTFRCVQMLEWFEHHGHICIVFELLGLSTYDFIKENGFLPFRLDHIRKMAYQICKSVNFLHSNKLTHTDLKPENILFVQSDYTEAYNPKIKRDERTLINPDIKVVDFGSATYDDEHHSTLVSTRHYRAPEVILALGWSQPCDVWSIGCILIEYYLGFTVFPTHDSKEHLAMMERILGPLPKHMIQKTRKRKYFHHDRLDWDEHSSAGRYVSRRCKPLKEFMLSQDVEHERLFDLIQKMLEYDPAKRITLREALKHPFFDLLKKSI
# [9] = Trypanosoma cruzi growth suppression in host cells – NIH3T3 host cells, beta-gal luminescence, confirmation (AID 2044); assay type: functional, cell-based;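 note: intracellular parasites grown in NIH/3T3 mouse fibroblasts as host cells; luminescent beta-galactosidase reporter signal from transgenic T. cruzi replicating inside host cells; inhibitors lower the luminescence signal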
# [10] = NIH3T3 cell viability loss – ATP luminescence, mouse fibroblasts, counter-screen, dose response (AID 2010); assay type: functional, cell-based;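 note: cells exposed to compound for about 90 hours before reading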
# Protein Wnt-3a = Protein Wnt-3a (Mus musculus, UniProt P27467); assay: antagonism of Wnt3a pathway luciferase reporter – Wnt-LIGHT cells, luminescence, selectivity assay for Gli-SUFU antagonist project, dose response (AID 651570); assay type: functional; conditions: read-out: IC50_Mean;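 note: Wnt-LIGHT reporter cells stimulated with conditioned medium from Wnt3a-producing cells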
# Sequence of Protein Wnt-3a (P27467 whole entry): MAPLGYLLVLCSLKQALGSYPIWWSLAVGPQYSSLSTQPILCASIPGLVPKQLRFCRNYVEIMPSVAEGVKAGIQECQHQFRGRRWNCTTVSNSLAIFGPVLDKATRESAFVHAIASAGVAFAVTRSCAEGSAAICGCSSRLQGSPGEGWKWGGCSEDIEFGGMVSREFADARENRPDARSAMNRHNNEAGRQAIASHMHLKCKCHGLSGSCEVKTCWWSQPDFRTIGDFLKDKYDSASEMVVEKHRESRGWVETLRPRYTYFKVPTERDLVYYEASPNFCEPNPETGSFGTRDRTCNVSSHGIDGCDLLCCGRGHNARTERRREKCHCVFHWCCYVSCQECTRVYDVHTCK
# HeLa = assay: ATP-based viability loss in HeLa cells – cell-based, CellTiter-Glo luminescence, cherry-pick samples, cytotoxicity control for MITF activator project, dose response (AID 540259); assay type: functional; conditions: Homo sapiens
structure (smiles),measurement,setting,value
Cn1c(=O)c2c(nc(OCc3cccnc3)n2Cc2ccccc2)n(C)c1=O,AC50,[1],1 µM (active)
CC(=O)Nc1ccc(NC(=O)C2CCN(C(=O)c3cccs3)CC2)cc1,IC50,[2],1.9 µM (active)
COc1ccccc1OCc1ccc(C(=O)Nc2ccccc2F)cc1,IC50,[3],> 99 µM (inactive)
same,IC50,Caspase-3,8.88 µM (active)
same,IC50,[4],> 99 µM (inactive)
COc1cc(OC)nc(NC(=O)CSc2nnc(-c3ccccc3)n2C2CCCCC2)n1,EC50,[5],> 112 µM (not active)
same,EC50,[6],> 112 µM (not active)
same,EC50,[7],1.05 µM (active)
Cc1nc(CNc2ncnc3ccc(-c4ccoc4)cc23)cs1,AC50,[8],0.0311 µM (active)
C=C(C)CSc1nc2sc3c(c2c(=O)n1C1CCCCC1)CCN(C)C3,EC50,[9],0.403 µM (active)
same,EC50,[10],> 60 µM (not active)
same,IC50,Protein Wnt-3a,13.5 µM (active)
N#Cc1ccc(NC(=O)c2cccs2)nc1,AC50,HeLa,248 µM (active)
C=CCn1c(SCc2ccccc2Cl)nnc1-c1sc2nc(C)cc(C)c2c1N,EC50,[9],0.161 µM (active)
same,EC50,[10],> 60 µM (not active)
same,EC50,[7],0.0757 µM (active)
